Values of other authors in paper PMC2936243 (Journal of neurochemistry, 2010).
Marks after values point to notes of the source that are not given here.

Key:
Conditions in all cases: cited from earlier work
[1] = tested on: α3* and α6* containing nAChR subtypes
[2] = tested on: GABAARs that contain the β3 subunit
[3] = tested on: nAChR subtypes that contain the α1 and α9 subunits
[4] = tested on: unknown site in brain tissue from α7 knockout mice

Substance | binding selectivity [1] | binding to GABAARs [2] | binding to α1 and α9 containing nAChRs [3] | residual binding in α7 knockout brain tissue [4]
monoiodinated α-conotoxin MII [[^125I]-α-CTx MII] | selectively binds to α3* and α6* containing nAChR subtypes |  |  | 
α-bungarotoxin [α-BgTx] |  | binds to a subset of GABAARs that contain the β3 subunit | also binds to non-α7 nAChR subtypes including those that contain the α1 and α9 subunits | significant residual α-BgTx binding to an unknown site
